Laboratory results reported in paper PMC8546149, “Antibiotic-chemoattractants enhance neutrophil clearance of Staphylococcus aureus” (Nature Communications, 2021).
In brackets after ≈: the same amount, converted by molar mass. Several values for one entry are separate records, joined by “and”; a condition that tells them apart may be missing. Identical values can stand only once. Non-standard residues stand in square brackets, D forms with d. No end group written: not given here. *: point of attachment. Pra = C#CC[C@H](N)C(=O)O; For = O=C*

Legend:
human neutrophils = assay: Transwell chemotaxis assay; format: cell-based; conditions: any of the concentrations tested (1-1000 nM)
Description: For neutrophils used in transwell assays whole blood was collected in the presence of EDTA, under approval from Monash University Human Research Ethics Committee (project #9572) with written informed consent from healthy human donors; donors were de-identified.
The chemotaxis assay was performed in a 96-transwell plate with 3 µm pores (Corning). The plate was prepared by adding 200 μL of peptide in chemotaxis buffer (4 mM L-glutamine, 0.5% Human Serum Albumin, Sigma, 49% Roswell Park Memorial Institute (RPMI) 1640, 49% Hank’s buffered salt solution, ThermoFisher) into the bottom receiving wells at a final peptide concentration of 1, 10, 100, and 1000 nM (0.02% DMSO). The negative control of 0.02% DMSO was used. The top of the transwell plate was loaded with 200,000 neutrophils in 75 μL chemotaxis buffer. The plate was incubated in the dark at 37 °C with 5% CO2 for 1.5 h. […] Elastase activity was used as an indicator of neutrophil numbers and was measured by adding the chromogenic elastase substrate N-methoxysuccinyl-Ala-Ala-Pro-Val-p-nitroanilide (Sigma) at a final concentration of 1 mM[35]. After 30 min at room temperature, the absorbance at 405 nm was determined using a microplate reader (Clariostar plate reader, BMG). […]

[1] = Mouse pneumonia model, lung histology (alveoli space, nuclei); format: in vivo; set-up: Area of lung: unit not given here; conditions: each line is an individual value, listed as Van
Description: For pathology assessment, excised lungs from one mouse for each of the treatment group was fixed in 10% buffered formalin before undergoing routine histological processing (Monash University Histology Platform). Lungs were embedded in paraffin, cut into 5 µm thick sections and stained with hematoxylin and eosin. Tissue pathology was assessed by a veterinary pathologist (Dr Mark Williamson, Gribbles Veterinary Pathology, Clayton, Australia).
The loss of alveoli structure was quantified in the H&E sections by determining the area of white space in six FOV (1.8 × 1.2 mm) in the outer lobes of the lung (threshold of 0–240). In addition, the number of nuclei in these FOV were also determined. This was performed by isolating nuclei in the image (threshold of 0–130) and then using the analyze particle function (particles 80–4000, circularity 0.05–1) in FIJI[36] to count the number of nuclei detected. Data were plotted using GraphPad Prism 8 software.

S. aureus = assay: Antimicrobial microbroth dilution assay (growth, MIC); format: cell-based; conditions: Staphylococcus aureus, 20 h, 90% growth inhibition at 20 h, ±SD, n=4
Description: All bacterial isolates used in this study are listed in Supplementary Table 1. The American Type Culture Collection strain (ATCC 29213) and S. aureus strains were cultured onto brain heart infusion (BHI) agar (BD) or into broth (BD) and grown at 37 °C with shaking. S. aureus was grown in cation adjusted Muller Hinton Broth II (CAMHB, Becton Dickson) for testing. All bacterial strains were stored in glycerol broth at −80 °C.
Antimicrobial activity of the antibiotic-chemoattractants was determined as per the Clinical and Laboratory Standards Institute guidelines for microbroth dilution assays. Compounds stocks were prepared as two-fold serial dilution at 10x stock concentration required (final concentration of DMSO 0.5%). Growth of the S. aureus (5 × 10^5 CFU/mL in CAMHB) was monitored in 96-well flat bottom polypropylene microtiter plates (Greiner) covered with BreatheEasy membranes (Diversified Biotech) and absorbance of each well was measured at 595 nm every 4 h for 24 h (Clariostar plate reader, software v5.20R5, BMG). The percentage growth was calculated relative to the no compound control and the average of three biological replicates plotted using GraphPad Prism 9 software. The minimum inhibitory concentration was determined by the lowest drug concentration that inhibited bacterial growth to 90% compared to the 0 μM control.

S. aureus (SH1000-GFP) = assay: Infection-on-a-chip S. aureus growth (GFP area) with neutrophils; format: cell-based, Staphylococcus aureus
Description: Use of this microfluidic device for monitoring migration of neutrophils and control of the S. aureus growth in cell culture medium has been outlined in detail previously. Briefly, microfluidic devices were primed with S. aureus (SH1000-GFP, 1 × 10^6/mL) in culture media (Iscove’s Modified Dulbecco’s Medium + 10% Fetal Bovine Serum) by loading the outer chamber and applying vacuum to draw bacteria into the inner chambers. The outer chamber was then washed by pushing 200 µL of media through the device using a pipette, and loaded with neutrophils (5.5 × 10^6/mL, stained with Hoechst 33342 dye, 10 min at 32 μM). Additionally, neutrophil phagocytosis was monitored by using pHrodo Red S. aureus BioParticles® (Life Technologies) in replace of live S. aureus cells. […] The concentration of cells were determined by hemocytometer.
Kinetics of neutrophil migration, S. aureus growth and phagocytosis was determined using imaging with an automated Nikon Eclipse TiE inverted wide-field microscope with stage control and perfect focus system run through the Nikon NIS element v4. […] The percentage of neutrophils recruited into the chamber was determined relative to the total number of neutrophils in each FOV divided by the number of chambers visible. […] The pHrodo or S. aureus GFP fluorescence within the microchamber was calculated by thresholding the image and measuring the area in FIJI[36]. […]

[2] = target: T1, formyl peptide receptor 1 (FPR1) (human, UniProt P21462 1-350); assay: cell-based or functional assay
T1 sequence (looked up): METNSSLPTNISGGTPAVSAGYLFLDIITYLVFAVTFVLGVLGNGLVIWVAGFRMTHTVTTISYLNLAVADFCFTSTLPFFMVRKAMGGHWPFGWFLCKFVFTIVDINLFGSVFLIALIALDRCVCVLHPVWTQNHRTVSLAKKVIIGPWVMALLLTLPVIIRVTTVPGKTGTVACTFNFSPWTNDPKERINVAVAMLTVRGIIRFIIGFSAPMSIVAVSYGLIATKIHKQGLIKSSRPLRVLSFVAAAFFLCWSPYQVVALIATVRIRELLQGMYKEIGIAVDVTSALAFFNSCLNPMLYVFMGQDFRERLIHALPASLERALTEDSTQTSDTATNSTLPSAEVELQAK

In the case of `CN[C@H](CC(C)C)C(=O)N[C@H]1C(=O)N[C@@H](CC(N)=O)C(=O)N[C@H]2C(=O)N[C@H]3C(=O)N[C@H](C(=O)N[C@H](C(=O)O)c4cc(O)cc(O)c4-c4cc3ccc4O)[C@H](O)c3ccc(c(Cl)c3)Oc3cc2cc(c3O[C@@H]2O[C@H](CO)[C@@H](O)[C@H](O)[C@H]2O[C@H]2C[C@](C)(N)[C@H](O)[C@H](C)O2)Oc2ccc(cc2Cl)[C@H]1O` [Vancomycin, vancomycin], the “neutrophil recruitment (in words)” value (human neutrophils) is reported as “no neutrophil recruitment”, the Area of lung [1] is reported as 61.3 and 69.7 and 55.1 and 61.6 and 71.0 and 68.4 and 57.8 and the Nuclei [1] is reported as 6013 and 1856 and 2087 and 3027 and 4794 and 2455. The MIC (S. aureus; A8819 (daptomycin susceptible, ST105)) was 0.8 ± 0.1 µM (≈ 1.16 µg/mL), the MIC (S. aureus; ATCC 29213 / MSSA, ATCC 29213 (MSSA)) was 1 ± 0.25 µM (≈ 1.45 µg/mL) and the MIC (S. aureus; MRSA, A5937 (MRSA, ST5)) was 0.6 ± 0.01 µM (≈ 0.87 µg/mL). It also gave an MIC (S. aureus; MRSA, A5948 (MRSA, ST8)) of 0.3 ± 0.03 µM (≈ 0.435 µg/mL), an MIC (S. aureus; MRSA, A6300 (MRSA, ST5)) of 1 ± 0.2 µM (≈ 1.45 µg/mL) and an MIC (S. aureus; MRSA, A8090 (MRSA, ST5)) of 0.6 ± 0.01 µM (≈ 0.87 µg/mL). It also gave an MIC (S. aureus; MRSA, A9719 (MRSA, ST5)) of 1 ± 0.3 µM (≈ 1.45 µg/mL), an MIC (S. aureus; MRSA, A9754 (MRSA, ST8)) of 1.1 ± 0.06 µM (≈ 1.59 µg/mL) and an MIC (S. aureus; MSSA, A9635 (MSSA, ST1892)) of 0.6 ± 0.01 µM (≈ 0.87 µg/mL).

With Van-C(H-MLFG-Tz) [C12] the “neutrophil recruitment (in words)” value (human neutrophils) was “no neutrophil recruitment” and the “growth inhibition of S. aureus by neutrophils in the microfluidic assay” value (S. aureus (SH1000-GFP)) was “no observable growth inhibition”.

B1: fMLFG = van (fMLFG conjugated to the C-terminus of vancomycin, no PEG linker) (peptide)
peptide: For-MLFG[Pra]
modifications: also: C-terminal propargylglycine linked by click (triazole) to azide-modified vancomycin carboxyl group
In the case of B1, the “ERK1/2 phosphorylation at 5 min in CHO cells overexpressing human FPR1, potency of the conjugate against the free peptide (lower potency)” value [2] is reported as 10 fold and the “calcium mobilization in CHO cells overexpressing human FPR1, potency of the conjugate against the free peptide (lower potency)” value [2] is reported as > 90 fold.
